Laboratory results from PubChem BioAssay (NCI).
Values joined by “and” are separate entries in the source; they are usually repeats but may differ in a detail not shown here. Equal values may be shown once.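 Protocol summary: plate cells (96-well), add compound at 5 concentrations, incubate 48 h, interpolate endpoints linearly. Here, GI50 denotes the concentration required for 50% inhibition of growth. At the TGI there is no net growth.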

Assays:
Test in all cases: NCI tumour cell line growth inhibition, 48 h
A549 NSCLC = test system: A549 NSCLC
HL-60(TB) leukemia = test system: HL-60(TB) leukemia
KM12 colon = test system: KM12 colon
MOLT-4 leukemia = test system: MOLT-4 leukemia
SK-MEL-5 melanoma = test system: SK-MEL-5 melanoma
SNB-19 CNS = test system: SNB-19 CNS
OVCAR-5 ovarian = test system: OVCAR-5 ovarian
SF-295 CNS = test system: SF-295 CNS
MCF7 breast = test system: MCF7 breast
MDA-MB-435 = test system: MDA-MB-435

SMILES | TGI (A549 NSCLC) | TGI (HL-60(TB) leukemia) | TGI (KM12 colon) | TGI (MOLT-4 leukemia) | TGI (SK-MEL-5 melanoma) | TGI (SNB-19 CNS) | TGI (OVCAR-5 ovarian) | TGI (SF-295 CNS) | GI50 (A549 NSCLC) [µM] | GI50 (MCF7 breast) [µM] | TGI (MCF7 breast) [µM] | GI50 (OVCAR-5 ovarian) [µM] | GI50 (SNB-19 CNS) [µM] | GI50 (KM12 colon) [µM] | GI50 (MDA-MB-435) [µM] | TGI (MDA-MB-435) [µM] | GI50 (MOLT-4 leukemia) [µM] | GI50 (SF-295 CNS) [µM] | GI50 (SK-MEL-5 melanoma) [µM] | GI50 (HL-60(TB) leukemia) [µM]
Cc1[nH]c(=O)nc(N/N=C/c2ccc(O)cc2)c1C(=O)Nc1ccc(Cl)cc1 | > 100 µM | > 100 µM | > 100 µM | > 100 µM | > 100 µM | > 100 µM |  |  |  |  |  |  |  |  |  |  |  |  |  | 
O=C1c2ccccc2C(=O)c2c1ccc1c3ccccc3n(Cc3ccccc3)c21 | > 100 µM | > 100 µM | > 100 µM | > 100 µM | > 100 µM |  | > 100 µM | > 100 µM |  |  |  |  |  |  |  |  |  |  |  | 
O=C1CC2Sc3ccccc3N=C2N1c1ccc(Cl)cc1Cl (configuration not stated) | > 100 µM | 72.1 µM | > 100 µM | > 100 µM | > 100 µM | > 100 µM | > 100 µM | > 100 µM |  |  |  |  |  |  |  |  |  |  |  | 
COc1ccc(-n2nc(C)c3c2N(C)C2(C)C[C@@H]4C3(C)[C@@H]3CC4(C2)N(C)c2c(c(C)nn2-c2ccc(OC)cc2)[C@H]3C)cc1 (some centres not stated) | > 100 µM |  |  |  |  | 86.3 µM | > 100 µM |  | 3.29 | 4.02 | > 100 | > 100 | 4.45 |  |  |  |  |  |  | 
CCOC(=O)NNC(=O)NC12CC3CC(CC(C3)C1)C2 | > 100 µM |  | > 100 µM | > 100 µM | > 100 µM | > 100 µM | > 100 µM | > 100 µM |  |  |  |  |  |  |  |  |  |  |  | 
Clc1ccccc1C1=NN(c2ccccc2)C2c3cc(Br)ccc3OCC12 (configuration not stated) | > 100 µM | > 100 µM | > 100 µM | > 100 µM |  | > 100 µM | > 100 µM | > 100 µM |  |  |  |  |  |  |  |  |  |  |  | 
N#Cc1ccc(N2Cc3cc(Cl)ccc3OC3=C2C(=O)N(Cc2ccccc2)C3=O)cc1 | 26.7 µM |  | 8.01 µM | 0.818 µM | 3.51 µM | 11.7 µM | 4.08 µM | 20.4 µM | 10.1 | 0.769 | 4.72 | 1.96 | 3.32 | 2.7 | 1.34 | 3.27 | 0.25 | 5.22 | 1.84 | 
Fc1nc(F)nc(-c2c3ccccc3c3n2CCS3)n1 | > 100 µM | > 100 µM | > 100 µM |  | > 100 µM | > 100 µM | > 100 µM | > 100 µM |  |  |  |  |  |  |  |  |  |  |  | 
O=C(CC(C(=O)O)N1CCOCC1)c1ccccc1 (configuration not stated) | > 100 µM | 43.6 µM |  | 35.5 µM | 43 µM | 53.4 µM | 47.3 µM | > 100 µM |  |  | 31.2 |  |  |  |  |  |  |  |  | 
COc1cc(CC(=O)c2ccc3c(c2)OCO3)cc(OC)c1OC | > 100 µM | > 100 µM | > 100 µM | > 100 µM | > 100 µM | > 100 µM | > 100 µM | > 100 µM |  |  |  |  |  |  |  |  |  |  |  | 
CC(C)=C1CCC(CN2CCCC2)C1=O (configuration not stated) | > 100 µM | 50.8 µM | > 100 µM | 44.3 µM | > 100 µM | > 100 µM | > 100 µM | > 100 µM |  |  |  |  |  |  |  |  |  |  |  | 
COc1ccc(N=C2NN=C(c3c[nH]c4ccccc34)CS2)cc1OC | > 53.1 µM |  | > 84.2 µM | > 100 µM | 23.4 µM | > 100 µM | > 100 µM | > 100 µM | 9.92 | 5.21 | > 75.5 | > 70.6 | 10.9 | 3.05 | 1.3 | 4 | 3.29 | 4.29 | 3.6 | 
CC1SC2(CCCCC2)N(NC(=O)c2[nH]c3ccc(F)cc3c2-c2ccccc2)C1=O (configuration not stated) | > 100 µM |  | > 100 µM | > 100 µM | > 100 µM | > 100 µM | > 100 µM | > 100 µM | 72.3 | > 100 | > 100 | > 100 | 55.6 | 63.7 | > 100 | > 100 | > 100 | 35.8 | > 100 | 
COc1ncnc2c(-c3ccco3)cn(COCc3ccccc3)c12 | > 50 µM | > 50 µM | > 50 µM |  | > 50 µM | > 50 µM | > 50 µM | > 50 µM | > 50 |  |  | > 50 | > 50 | > 50 | > 50 | > 50 |  | > 50 | 1.28 | > 50
CCCCCCCCCCCCCCCC(=O)N[C@H]1CCc2cc(OC)c(OC)c(OC)c2-c2ccc(SC)c(=O)cc21 | 13.1 µM and 14.4 µM | 1.35 µM and 6.82 µM | 8.4 µM and 3.73 µM | 19.6 µM and 13.1 µM | 5.73 µM and 4.4 µM | 9.27 µM and 8.35 µM | 41.1 µM and 36.8 µM | 8.89 µM and 5.44 µM | 3.63 |  |  | 19.7 | 2.46 | 0.845 |  |  | 3.21 | 1.12 | 1.52 | 2.01
CCN1CC2(C)CC[C@@H](OC)C34[C@@H]2[C@H](OC(C)=O)C2(OCO[C@@]25C[C@H](OC)C2C[C@]3(O)[C@@H]5[C@H]2O)[C@H]14 | > 100 µM | > 100 µM | > 100 µM |  |  | > 100 µM | > 100 µM | > 100 µM |  |  |  |  |  |  |  |  |  |  |  | 
O=C1/C(=C/c2ccccc2)CN(C(=O)Oc2ccc([N+](=O)[O-])cc2)C/C1=C\c1ccccc1 |  | 3.97 µM and 5.9 µM | 2.89 µM and 5.49 µM | 4.83 µM and 4.45 µM | 5.38 µM |  |  | 7.93 µM and 4.98 µM |  |  |  |  |  | 1.88 |  |  | 1.21 | 2.07 | 4.12 | 1.73
COc1ccccc1NC(=O)C(=O)C1C(=O)Nc2ccccc2S1=O (configuration not stated) | > 100 µM | > 100 µM | > 100 µM | > 100 µM | > 100 µM | > 100 µM | > 100 µM | > 100 µM |  |  |  |  |  |  |  |  |  |  |  | 
CN1C(=O)C23CC4=CC=CC(O)C4N2C(=O)C1(CO)SS3 (configuration not stated) | 0.318 µM |  | 0.453 µM | 0.447 µM | 0.38 µM | 0.55 µM | 0.149 µM | 0.389 µM |  |  | 0.371 |  |  |  |  | 2.56 |  |  |  | 
O=C(Cc1nc2ccc([N+](=O)[O-])cc2[nH]c1=O)C(=O)Nc1cc(Cl)c(Cl)cc1Cl | > 100 µM |  | > 100 µM | > 100 µM | > 100 µM | > 100 µM | > 100 µM | > 100 µM |  |  | > 100 |  |  |  |  | > 100 |  |  |  | 
